Molecules are shown by their SMILES. Counter-ions that a name gives are not always drawn. A value given as a limit tells only on which side of the number the result lay.

As usually defined, the GI50 is the concentration at which growth is held to half of that of the control. One may read the inhibition as the relative decrease from the control value, in per cent. A higher inhibition goes with a response far below the control.

The subject of this experiment is MKN-45 cells. Kind of experiment: Inhibition of MKN-45 proliferation (MTT). It counts as cell-based, human. The following applies: for GI50 / inhibition at 0.1 µM / inhibition at 1 µM: Homo sapiens, MKN-45, MKN-45 proliferation; for inhibition at 0.1 µM / Inhibition (% Inhibition of MKN-45 proliferation): 0.1 μM. Here is the method:
Inhibition of MKN-45 Proliferation:
Cell proliferation assays were carried out using the high Met expressing human gastric adenocarcinoma cell line, MKN-45, according to the following schedule:
Day 1: Cells were plated in 96-well plates in complete growth medium.
Day 2: Compounds at desired concentrations were added.
Day 5: Cell viability was determined using the 3-[4,5-dimethylthiazol-2-yl]-2,5-diphenyltetrazolium bromide (MTT) dye reduction test.

Compound `O=C(c1ccc(-c2ccc3nnn(Cc4ccc5ncccc5c4)c3n2)cc1)N1CCC[C@H]1CN1CCCC1` [Ex 32, (S)-(2-(pyrrolidin-1-ylmethyl)pyrrolidin-1-yl)(4-(3-(quinolin-6-ylmethyl)-3H-[1,2,3]triazolo[4,5-b]pyridin-5-yl)phenyl)methanone hydrochloride] gave a GI50 of less than 1000 nM.
Same read-out and setting: the figure for `O=C(c1ccc(-c2ccc3nnn(Cc4ccc5ncccc5c4)c3n2)cc1)N1CCN(CCO)CC1` [Ex 33, (4-(2-hydroxyethyl)piperazin-1-yl)(4-(3-(quinolin-6-ylmethyl)-3H-[1,2,3]triazolo[4,5-b]pyridin-5-yl)phenyl)methanone] is 150 to 500 nM; for `O=C(c1ccc(-c2ccc3nnn(Cc4ccc5ncccc5c4)c3n2)cc1)N1CC[C@@H](O)C1` [Ex 34, (R)-(3-hydroxypyrrolidin-1-yl)(4-(3-(quinolin-6-ylmethyl)-3H-[1,2,3]triazolo[4,5-b]pyridin-5-yl)phenyl)methanone hydrochloride] it is less than 1000 nM.
Compound `O=C(NCCN1CCCCC1)c1ccc(-c2ccc3nnn(Cc4ccc5ncccc5c4)c3n2)cc1` [Ex 35, N-(2-(piperidin-1-yl)ethyl)-4-(3-(quinolin-6-ylmethyl)-3H-[1,2,3]triazolo[4,5-b]pyridin-5-yl)benzamide] yielded a 50% growth inhibitory concentration (GI50) of 50 to 150 nM.
`O=C(NCCN1CCOCC1)c1ccc(-c2ccc3nnn(Cc4ccc5ncccc5c4)c3n2)cc1` [Ex 36, N-(2-morpholinoethyl)-4-(3-(quinolin-6-ylmethyl)-3H-[1,2,3]triazolo[4,5-b]pyridin-5-yl)benzamide] showed a GI50 of 50 to 150 nM.
Same read-out and setting: under `O=C(NCCN1CCCC1)c1ccc(-c2ccc3nnn(Cc4ccc5ncccc5c4)c3n2)cc1` [Ex 37, N-(2-(pyrrolidin-1-yl)ethyl)-4-(3-(quinolin-6-ylmethyl)-3H-[1,2,3]triazolo[4,5-b]pyridin-5-yl)benzamide] stands not above 50 nM; under `O=C(c1ccc(-c2ccc3nnn(Cc4ccc5ncccc5c4)c3n2)cc1)N1CCC(N2CCCC2)CC1` [Ex 38, (4-(pyrrolidin-1-yl)piperidin-1-yl)(4-(3-(quinolin-6-ylmethyl)-3H-[1,2,3]triazolo[4,5-b]pyridin-5-yl)phenyl)methanone], less than 1000 nM.
The same measure, in the same setting: under `CN(C)CCCNC(=O)c1ccc(-c2ccc3nnn(Cc4ccc5ncccc5c4)c3n2)cc1` [Ex 39, N-(3-(dimethylamino)propyl)-4-(3-(quinolin-6-ylmethyl)-3H-[1,2,3]triazolo[4,5-b]pyridin-5-yl)benzamide] stands 50 to 150 nM; under `COCCN(CCOC)C(=O)c1ccc(-c2ccc3nnn(Cc4ccc5ncccc5c4)c3n2)cc1` [Ex 40, N,N-Bis(2-methoxyethyl)-4-(3-(quinolin-6-ylmethyl)-3H-[1,2,3]triazolo[4,5-b]pyridin-5-yl)benzamide hydrochloride], less than 1000 nM.
Still for that read-out and setting: the figure for `O=C(NCCN1CCCC1)c1ccc(-c2ccc3nnn(Cc4ccc5ncccc5c4)c3n2)cc1F` [Ex 44, 2-Fluoro-N-(2-(pyrrolidin-1-yl)ethyl)-4-(3-(quinolin-6-ylmethyl)-3H-[1,2,3]triazolo[4,5-b]pyridin-5-yl)benzamide] is 50 to 150 nM.
`CNC(=O)c1cccc(-c2ccc3nnn(Cc4ccc5ncccc5c4)c3n2)c1` [Ex 55, N-Methyl-3-(3-(quinolin-6-ylmethyl)-3H-[1,2,3]triazolo[4,5-b]pyridin-5-yl)benzamide] returned an inhibition at 0.1 µM of less than 25%.
In the case of `O=C(O)CCNc1ccc(-c2ccc3nnn(Cc4ccc5ncccc5c4)c3n2)cc1F` [Ex 58, 3-(2-Fluoro-4-(3-(quinolin-6-ylmethyl)-3H-[1,2,3]triazolo[4,5-b]pyridin-5-yl)phenylamino)propanoic acid], the inhibition at 0.1 µM was less than 25%. In addition, where the note is “1 μM”, the inhibition at 1 µM was less than 25%.
Compound `CCNC(=O)c1ccc(-c2ccc3nnn(Cc4ccc5ncccc5c4)c3n2)cc1F` [Ex 73, N-Ethyl-2-fluoro-4-(3-(quinolin-6-ylmethyl)-3H-[1,2,3]triazolo[4,5-b]pyridin-5-yl)benzamide hydrochloride] gave an inhibition at 0.1 µM of 75 to 100%. Moreover, under “1 μM”, the inhibition at 1 µM fell in the range of 50 to 75%.
Take `NC(=O)c1ccc(-c2ccc3nnn(Cc4ccc5ncccc5c4)c3n2)cc1F` [Ex 74, 2-Fluoro-4-(3-(quinolin-6-ylmethyl)-3H-[1,2,3]triazolo[4,5-b]pyridin-5-yl)benzamide hydrochloride]: the inhibition at 0.1 µM lay within 50 to 75%. The compound also returned an inhibition at 1 µM (1 μM) of 50 to 75%.
With `CC(C)(c1ccc2ncccc2c1)n1nnc2ccc(-c3ccc(C(N)=O)c(F)c3)nc21` [Ex 84, 2-Fluoro-4-(3-(2-(quinolin-6-yl)propan-2-yl)-3H-[1,2,3]triazolo[4,5-b]pyridin-5-yl)benzamide], the inhibition at 0.1 µM was less than 25%. In addition, where the note is “1 μM”, the inhibition at 1 µM is less than 25%.
Compound `O=C(NC1CC1)c1ccc(-c2ccc3nnn(Cc4ccc5c(ccc[n+]5[O-])c4)c3n2)cc1F` [Ex 88, 6-((5-(4-(Cyclopropylcarbamoyl)-3-fluorophenyl)-3H-[1,2,3]triazolo[4,5-b]pyridin-3-yl)methyl)quinoline 1-oxide] showed an inhibition at 0.1 µM of less than 25%. The same compound showed an inhibition at 1 µM (1 μM) of less than 25%.
Under “1 μM”, `CN(C)CCCNC(=O)c1ccc(-c2ccc3nnn(Cc4ccc5ncccc5c4)c3n2)cc1F` [Ex 121, N-(3-(dimethylamino)propyl)-2-fluoro-4-(3-(quinolin-6-ylmethyl)-3H-[1,2,3]triazolo[4,5-b]pyridin-5-yl)benzamide dihydrochloride] showed an inhibition at 1 µM of less than 25%. Further, the “Inhibition (% Inhibition of MKN-45 proliferation)” value (MKN-45 proliferation, dihydrochloride) is on record as “A (A = ≥75 to 100%)”.
As to `Cl.NC(=O)c1ccc(-c2ccc3nnn(Cc4ccc5ncccc5c4)c3n2)cc1Cl` [Ex 123, 2-Chloro-4-(3-(quinolin-6-ylmethyl)-3H-[1,2,3]triazolo[4,5-b]pyridin-5-yl)benzamide hydrochloride], the “Inhibition (% Inhibition of MKN-45 proliferation)” value (MKN-45 proliferation) is “B (B = ≥50-<75%)”.
In turn, `NCCCNC(=O)c1ccc(-c2ccc3nnn(Cc4ccc5ncccc5c4)c3n2)cc1F` [Ex 125, N-(3-Aminopropyl)-2-fluoro-4-(3-(quinolin-6-ylmethyl)-3H-[1,2,3]triazolo[4,5-b]pyridin-5-yl)benzamide dihydrochloride] had an inhibition at 0.1 µM of less than 25%. Also, the inhibition at 1 µM (1 μM) is less than 25%.
As for `CN(C)CCCNC(=O)c1ccc(-c2ccc3nnn(Cc4ccc5ncccc5c4)c3n2)cc1Cl` [Ex 126, 2-Chloro-N-(3-(dimethylamino)propyl)-4-(3-(quinolin-6-ylmethyl)-3H-[1,2,3]triazolo[4,5-b]pyridin-5-yl)benzamide dihydrochloride], the inhibition at 0.1 µM fell in the range of 75 to 100%.
The compound `Cl.O=C(Nc1nc[nH]n1)c1ccc(-c2ccc3nnn(Cc4ccc5ncccc5c4)c3n2)cc1F` [Ex 127, 2-Fluoro-4-(3-(quinolin-6-ylmethyl)-3H-[1,2,3]triazolo[4,5-b]pyridin-5-yl)-N-(1H-1,2,4-triazol-3-yl)benzamide hydrochloride] had an inhibition at 1 µM (1 μM) of 75 to 100%. The “Inhibition (% Inhibition of MKN-45 proliferation)” value (MKN-45 proliferation) was “A (A = ≥75 to 100%)”.
`CCNC(=O)c1ccc(-c2ccc3nnn(Cc4cc5cccnc5cc4F)c3n2)cc1Cl` [Ex 133, 2-Chloro-N-ethyl-4-(3-((7-fluoroquinolin-6-yl)methyl)-3H-[1,2,3]triazolo[4,5-b]pyridin-5-yl)benzamide] gave a GI50 not above 50 nM and an inhibition at 0.1 µM of 75 to 100%.
Turning to `COC(=O)c1ccc(-c2ccc3nnn(Cc4cc5cccnc5cc4F)c3n2)cc1F` [Ex 135, Methyl 2-fluoro-4-(3-((7-fluoroquinolin-6-yl)methyl)-3H-[1,2,3]triazolo[4,5-b]pyridin-5-yl)benzoate], the inhibition at 0.1 µM was less than 25%.
Turning to `NC(=O)c1cccc(-c2ccc3nnn(Cc4ccc5ncccc5c4)c3n2)c1` [Ex 138, 3-(3-(Quinolin-6-ylmethyl)-3H-[1,2,3]triazolo[4,5-b]pyridin-5-yl)benzamide], the inhibition at 0.1 µM lay within 25 to 50%. In addition, the inhibition at 1 µM (1 μM) is 75 to 100%.
`Cl.NC(=O)c1ccc(-c2ccc3nnn(Cc4cc5cccnc5cc4F)c3n2)cc1F` [Ex 141, 2-Fluoro-4-(3-((7-fluoroquinolin-6-yl)methyl)-3H-[1,2,3]triazolo[4,5-b]pyridin-5-yl)benzamide hydrochloride]: under “MKN-45 proliferation”, the “Inhibition (% Inhibition of MKN-45 proliferation)” value is “A (A = ≥75 to 100%)”. Besides, under “MKN-45 proliferation, 1 μM”, the “% inhibition @ 1 uM” value was “A (A = ≥75 to 100%)”.
In the case of `Cc1cc(-c2ccc3nnn(Cc4ccc5ncccc5c4)c3n2)ccc1C(N)=O` [Ex 142, 2-Methyl-4-(3-(quinolin-6-ylmethyl)-3H-[1,2,3]triazolo[4,5-b]pyridin-5-yl)benzamide], the GI50 lay in the range of 50 to 150 nM and the inhibition at 0.1 µM lay in the range of 75 to 100%.
On to `c1cnc2ccc(Cn3nnc4ccc(-c5cn[nH]c5)nc43)cc2c1` [Ex 143, 6-((5-(1H-Pyrazol-4-yl)-3H-[1,2,3]triazolo[4,5-b]pyridin-3-yl)methyl)quinoline], for which the GI50 lay in the range of 50 to 150 nM.
Still for that read-out and setting: under `Cn1cc(-c2ccc3nnn(Cc4ccc5ncccc5c4)c3n2)cn1` [Ex 144, 6-((5-(1-Methyl-1H-pyrazol-4-yl)-3H-[1,2,3]triazolo[4,5-b]pyridin-3-yl)methyl)quinoline] stands 50 to 150 nM; under `Cc1n[nH]c2cc(-c3ccc4nnn(Cc5ccc6ncccc6c5)c4n3)ccc12` [Ex 168, 6-((5-(3-Methyl-1H-indazol-6-yl)-3H-[1,2,3]triazolo[4,5-b]pyridin-3-yl)methyl)quinoline], 150 to 500 nM; under `c1cnc2ccc(Cn3nnc4ccc(-c5ccc6[nH]ccc6c5)nc43)cc2c1` [Ex 169, 6-((5-(1H-Indol-5-yl)-3H-[1,2,3]triazolo[4,5-b]pyridin-3-yl)methyl)quinoline], less than 1000 nM.
The same measure, in the same setting: under `c1cnc2ccc(Cn3nnc4ccc(-c5ccc6cc[nH]c6c5)nc43)cc2c1` [Ex 170, 6-((5-(1H-Indol-6-yl)-3H-[1,2,3]triazolo[4,5-b]pyridin-3-yl)methyl)quinoline] stands less than 1000 nM.

Values taken from US10590129B2 (Incozen Therapeutics Pvt. Ltd., priority 2010, dated 2020).
